Series [1] has as its system blood coagulation (prothrombin time). The series can be described thus: Prothrombin time test. It counts as biochemical. Conditions: for PT: without conjugate 11.5; for Potency score in PT test: most potent (1) to least potent (5).
Series [2] has as its system blood coagulation (aPTT). In words: Activated partial thromboplastin time test. Conditions: for aPTT: without conjugate 30.5; for Potency score in aPTT test: most potent (1) to least potent (5). The series is classed as biochemical.
Series [3] concerns thrombin. The series can be described thus: Thrombin time test. The series is classed as biochemical. Conditions: for TT: without conjugate 13.4; for Potency score in TT test: most potent (1) to least potent (5).
The subject of series [4] is CNS-1 glioma cells. The series can be described thus: Proliferation (XTT) of CNS-1 glioma cells. The conditions noted are these: CNS-1 cells. It counts as cell-based, rat. How it is done:
Several peptide moieties (Table 1) according to the present invention were synthesized. Proliferation was measured, by means of XTT, in C6 and CNS-1 glioma cell-lines (FIGS. 8A and 8B, respectively). In C6 cells, proliferation was measured before (black bar) and after cells were treated with the PAR-1 antagonist SCH79797 at various doses ranging from 10 nM to 10 μM (grey bars; FIG. 8A).
In another set of experiments, CNS-1 glioma cell-line was treated with increased doses of TLCK (125 nM to 14 mM), for 48 hours (FIG. 9; grey bars). Proliferation was measured by means of XTT in comparison to non-treated cells (control; black bar).
Initially, CNS-1 glioma cells were treated with increased concentrations of two peptide conjugates: a short conjugate of the formula tosyl-DPR-CK (comprising 3 amino acids, 3AA) or a long conjugate of the formula tosyl-NATLDPR-CK (comprising 7 amino acids, 7AA; SEQ ID NO: 4) in concentrations of 100 pM, 1 nM and 10 nM, for 48 hours (FIG. 10). FIG. 10 provides the results of an XTT assay used for assessing cell proliferation.
The effect of the peptide conjugate alone, or in combination with PAR-1 antagonist, SCH79797, on cell proliferation was determined in comparison to untreated cells or cells treated with PAR-1 antagonist (FIG. 13).
(In general: Formazan colour is commonly taken as a measure of viable cells.)

Series [5] concerns Factor Xa. The series can be described thus: Factor Xa activity test. The series is classed as biochemical. The conditions noted are these: 100 μM; for Potency score in Factor Xa activity test: most potent (1) to least potent (5); for Fxa: without conjugate 0.11.
Series [6] concerns the target Protein C (Homo sapiens, UniProt P04070). In words: Protein C activity test. It counts as biochemical. Conditions: for aPC: without conjugate 109; for Potency score in Protein C activity test: most potent (1) to least potent (5).
In series [7] the test system is rat Glioblastoma multiforme (GBM) tumor. The series can be described thus: Tumor size, edema and survival in GBM animal model. The series is classed as in vivo. Conditions: for change in edema surrounding the tumor: 1 μl/h for 7 days; for change in tumor size: 1 μl/h for 7 days intratumoral, MRI, grade 1 and 2 tumors; for rats with severe initial tumors surviving to the second MRI: none of 3 in controls. How it is done:
Cells (0.5×10^6 cells) from a highly malignant cell line of rat Glioblastoma multiforme (GBM) were injected by stereotactic methods into the parietal cortex of rats. Five (5) days later the brain of these rats were examined by MM and the tumors scored on a scale of 1-3 (1-small size tumor, 2-middle size tumor, 3-large size tumor) and for ventricular localization of the tumor. A catheter was placed in the brain tumor and attached to an osmotic pump (Alzet) releasing 1 μl/h for 7 days of one of the following three (3) treatments: saline (n=13), 6AA 2 μM (n=14) and 6AA 20 μM (n=14).
In order to account for the unequal distribution of initial tumor size, tumor and edema analyses were performed on rats with grade 1 and 2 tumors in the initial Mill (n=7, 6 and 5 for the saline, low and high treatment groups, respectively).
Survival was registered daily (FIG. 21).

Series [8] is described as follows: in vivo. The conditions noted are these: ip, 2 micromolar, in 100 ul.
Method: The concentrations of the peptide conjugates in the plasma of animals treated therewith was evaluated by a unique method that was based on the ability of the peptide conjugates to inhibit thrombin activity. […] The essay initiated by obtaining blood samples from animals which received the peptide conjugates (100 microliter containing 2 micromolar, i.p.). The blood samples, after being maintained in citrate buffered sample tubes, were subjected to centrifugation for plasma separation. Samples were then filtered through a membrane with a 10 kD molecular weight cutoff which excluded all blood coagulation factors (by addition of calcium to neutralize the anticoagulation effect of the citrate buffer). Coagulation factor-free plasma samples were then applied to the thrombin activity assay.
The resulting thrombin activities in each plasma sample either diluted (×10) or as is were given in arbitrary units (FIGS. 18-18D, diagonal shading and dotted bars, respectively). However, the actual concentration were deduced by comparing the activities to calibrated activities generated with known concentrations of the conjugate peptides. The calibration data included the following thrombin activities: activity in a sample of thrombin in the absence of plasma and conjugates (black bars, FIGS. 18A-18D); and activity in four samples of thrombin and known concentrations of the peptide conjugates (10 nM, 100 nM, 1 micromolar and 10 micromolar; bars 2nd to 5th from right in FIGS. 18A-18D).
Series [9] relates to CNS-1 glioma cells. How it is done: The thrombin-like activity of CNS-1 cells was initially measured in control cells and in cells treated with (i) the short peptide conjugate (tosyl-DPR-CK, corresponding to a conjugate that includes the peptide termed 3AA) or (ii) the long conjugate (tosyl-NATLDPR-CK, corresponding to a conjugate that includes the peptide termed 7AA (SEQ ID No. 4)) at high ([…]) and low (100 nM) concentrations (FIG. 16).

For series [10], the system named is EAN rats (experimental autoimmune neuritis). The series can be described thus: Electrophysiological tests in EAN rats treated with thrombin inhibitors. The series is classed as in vivo, rat. Here is the method: (§1) Electrophysiological tests of the sciatic nerves were performed on day 32 PI (post-immunization/induction) in EAN model (FIGS. 3A-C) and 8 weeks after STZ induction (FIG. 4A-C). Rats were anesthetized with Phenobarbital (IP, 24 mg/kg). Two pairs of monopolar needle electrodes were used to stimulate the tail nerves. Stimulating cathodes were inserted to a depth of 4-5 mm at the base of the tail and 4 cm distally. An anode at each location was inserted into the skin (4-5 mm depth) 1 cm proximal to the cathode. A ground electrode was placed between the distal stimulating electrode and the active recording electrode. Electromyography (EMG) recordings of responses of the tail muscles to proximal and distal stimuli, made by a pair of ring electrodes coated with electrode jelly and placed 1 cm distally to the distal stimulating electrode, were collected. The tail skin was wiped with alcohol prior to placing the electrodes. […] Both proximal and distal latencies were measured using time intervals from the stimulus artifact to the first deflection from baseline. To calculate the motor nerve conduction velocity (MNCV), the distance between stimulating cathodes was divided by the latency difference. Amplitudes of the compound muscle action potential (CMAP) from both proximal and distal stimulations were measured from the negative to the positive peaks. The reduction of the proximal CMAP compared with that of the distal CMAP was calculated by the equation: [(distal CMAP-proximal CMAP)/distalCMAP×100] and was defined as the R ratio. Temperature differences were minimized by conducting the study as soon as the anesthesia had taken effect and by warming the tail with a heating lamp.
(§2) FIGS. 3 and 4 each include 3 graphs summarizing the results from electrophysiological tests of treated rats, as follows: distal latency (3A, 4A) referring to the time, in milliseconds, between distal stimulation to recording; conduction velocity (3B, 4B) referring to the distance over time, in meters/seconds; and amplitude (3C, 4C) referring to the size of the response as measured in millivolts.

In series [11] the test system is STZ-induced diabetic rats. In words: Electrophysiological tests in STZ-induced diabetic rats treated with thrombin inhibitors. It counts as in vivo, rat. Here is the method:
as §1, §2

Peptide text beside a SMILES is read from it. * marks the point of attachment. Tos = Cc1ccc(S(=O)(=O)*)cc1; CH2Cl = ClC*

Sequence of Protein C (P04070 212-461 limits assumed): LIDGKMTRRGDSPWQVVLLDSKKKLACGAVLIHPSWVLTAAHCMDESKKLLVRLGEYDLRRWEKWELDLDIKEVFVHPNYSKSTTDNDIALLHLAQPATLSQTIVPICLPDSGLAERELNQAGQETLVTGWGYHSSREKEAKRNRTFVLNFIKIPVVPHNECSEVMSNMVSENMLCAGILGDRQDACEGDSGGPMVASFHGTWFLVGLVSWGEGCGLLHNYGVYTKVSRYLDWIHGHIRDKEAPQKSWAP
Sequence of Protein C (P04070 43-197 partner limits assumed): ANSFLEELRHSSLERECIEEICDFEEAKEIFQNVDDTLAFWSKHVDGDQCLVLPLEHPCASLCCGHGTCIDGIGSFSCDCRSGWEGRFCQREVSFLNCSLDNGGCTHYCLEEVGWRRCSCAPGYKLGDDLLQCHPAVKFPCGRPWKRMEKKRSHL

For `Cc1ccc(S(=O)(=O)N[C@@H](CC(C)C)C(=O)N[C@@H](CC(=O)O)C(=O)N2CCC[C@H]2C(=O)N[C@@H](CCCNC(=N)N)C(=O)CCl)cc1` [4AA, tosyl-LDPR-CK] (Tos-LDPR-CH2Cl), the PT was 11.5 s in [1] (10 nM), 11.4 s in series [1] (1 μM) and 12.7 s in series [1] (100 μM). Also, in series [1] (100 μM), the “Potency score in PT test” value was determined as 5. Moreover, the aPTT in series [2] (10 nM) was found to be 30.8 s; in [2] (1 μM), 30.9 s; in series [2] (100 μM), 42.6 s. Besides, the “Potency score in aPTT test” value in series [2] (100 μM) is on record as 5. For the same molecule, the TT in [3] (10 nM) was 13.5 s; in series [3] (1 μM) it was 14.6 s; in [3] (100 μM), > 80 s. For the same molecule, the “Potency score in TT test” value in series [3] (1 μM) was 5.
As to `Cc1ccc(S(=O)(=O)N[C@@H](C)C(=O)N[C@H](C(=O)N[C@@H](CC(C)C)C(=O)N[C@@H](CC(=O)O)C(=O)N2CCC[C@H]2C(=O)N[C@@H](CCCNC(=N)N)C(=O)CCl)[C@@H](C)O)cc1` [6AA, tosyl-ATLDPR-CK] (Tos-ATLDPR-CH2Cl), the “inhibition of cell proliferation” value in [4] (48 hours, 10 μM, p<0.05) is listed as “Significant inhibition”. For the same molecule, the “proliferation compared to controls” value in series [4] (72 hours, all tested concentrations, p<0.05) is reported as “significantly lower proliferation”. Further, the PT in series [1] (10 nM) was determined as 11.5 s; in series [1] (1 μM), 11.4 s; in [1] (100 μM), 16.5 s. In [1] (100 μM), the “Potency score in PT test” value was 3. Besides, the aPTT was determined as 30 s in series [2] (10 nM), 30.6 s in [2] (1 μM) and 67.6 s in series [2] (100 μM). The “Potency score in aPTT test” value in series [2] (100 μM) is listed as 3. The TT in series [3] (10 nM) was 13.9 s; in [3] (1 μM), 18.5 s; in series [3] (100 μM), > 80 s. In addition, in [3] (1 μM), the “Potency score in TT test” value was 3. Moreover, in [5], the “Potency score in Factor Xa activity test” value was found to be 3. In series [5], this molecule displayed a Fxa of 0.36. The values for the aPC in series [6] (1 μM) and in [6] (100 μM) were 108 and 11, respectively. For the same molecule, the “Potency score in Protein C activity test” value in series [6] (100 μM) is 2. Moreover, the “change in edema surrounding the tumor” value in series [7] (2 μM) and in [7] (20 μM) was “reduction in the edema” in each case. Also, the “change in tumor size” value is “A similar trend was observed” in series [7] (2 μM) and “reduced tumor size to half of the original size” in series [7] (20 μM, p=0.030). Besides, the “rats with severe initial tumors surviving to the second MRI” value is 1 out of 3 in series [7] (2 μM) and “all 3” in series [7] (20 μM). Besides, the survival result in series [7] (20 μM, registered daily) is reported as “clear trend to increased survival”. Moreover, the level at time molar in [8] was < 10 nM.
As a reminder, the IC50 is the concentration needed to halve the response being measured. Lower therefore signals greater potency. Turning to `Cc1ccc(S(=O)(=O)N[C@@H](CC(N)=O)C(=O)N[C@@H](C)C(=O)N[C@H](C(=O)N[C@@H](CC(C)C)C(=O)N[C@@H](CC(=O)O)C(=O)N2CCC[C@H]2C(=O)N[C@@H](CCCNC(=N)N)C(=O)CCl)[C@@H](C)O)cc1` [7AA, tosyl-NATLDPR-CK] (Tos-NATLDPR-CH2Cl), the IC50 in series [9] was 0.01 nM. In addition, the “inhibition of cell proliferation” value was “Significant inhibition” in series [4] (48 hours, 10 μM, p<0.05) and “significant inhibition” in [4] (XTT, 48 hours, 10 nM). Besides, in series [4] (XTT, PAR-1 antagonist 1 μM, compared to untreated cells and to PAR-1 antagonist alone), the “inhibition of cell proliferation, in combination with PAR-1 antagonist” value is on record as “greater inhibition on cell proliferation”. In [4] (XTT, compared to untreated cells and to PAR-1 antagonist alone), the “inhibition of cell proliferation, applied alone” value is on record as “greater inhibition on cell proliferation”. Moreover, the figures for the PT in [1] (10 nM), in series [1] (1 μM) and in series [1] (100 μM) were 11.5 s, 11.2 s and 17.4 s, respectively. Moreover, the “Potency score in PT test” value in series [1] (100 μM) is given as 2. Further, the aPTT in series [2] (10 nM) stood at 29.9 s; in series [2] (1 μM), 30.7 s; in series [2] (100 μM), 85.2 s. Further, the “Potency score in aPTT test” value in [2] (100 μM) is on record as 2. Moreover, the TT in [3] (10 nM) was 13.5 s; in [3] (1 μM), 24.1 s; in [3] (100 μM) it was > 80 s. Besides, the “Potency score in TT test” value in [3] (1 μM) is given as 2. Moreover, in [5], the “Potency score in Factor Xa activity test” value is given as 2. Also, in [5], the Fxa stood at 0.43. In addition, the aPC in series [6] (1 μM) is 110; in [6] (100 μM), 25. In series [6] (100 μM), the “Potency score in Protein C activity test” value turned out to be 4. Further, the level at time molar in series [8] is ~10 nM.
For “N alpha-tosyl-L-lysine chloromethyl ketone [TLCK]”, the conduction velocity worked out at 40.55±6.7 m/sec in series [10] (daily treatment for 2 weeks, TLCK 4.4 mg/kg, NAPAP 120 μM/kg, untreated EAN 23.6±1.2) and 41.95±3.9 m/sec in series [11] (STZ rats, daily treatment for 2 weeks, TLCK 4.4 mg/kg, NAPAP 120 μM/kg, untreated STZ 28.5±2.8). Moreover, the proximal amplitude in series [10] (untreated EAN 0.76±0.33, non-significant) is 1.36±0.49 millivolts; in series [11] (STZ rats, untreated STZ 0.48±0.13, insignificant) it was 1.81±0.8 millivolts. In addition, the latency in series [10] (untreated EAN 1.43±0.023, control 0.54±0.03) was found to be 1.28 ± 0.18 ms; in series [11] (STZ rats, untreated STZ 1.93±0.139, control 1.29±0.057), 1.44 ± 0.04 ms. In addition, the internal bleeding entry in [11] (animals treated with thrombin inhibitors) is listed as “caused severe internal bleeding”. Also, the “concentration at which glioma-cell proliferation decreased” value in [4] (48 hours) is given as “higher than 1 μM”. Besides, the proliferation-inhibition result is on record as “No significant proliferation-inhibition” in [4] (48 hours, 1 μM to 125 nM) and “significant proliferation-inhibition” in [4] (48 hours, 8-33 μM). Also, the “proliferation / cell death” value in [4] (48 hours, 6.7 mM and 14 mM) was “caused cell death”. The “proliferation, administered alone” value in [4] (XTT, 1 μM) is reported as “did not inhibit proliferation”. Further, the “proliferation-inhibition, combined treatment with the PAR-1 antagonist” value in [4] (compared with PAR-1 antagonist (1 μM) alone) was “significantly increased said inhibitory effect”.

These data come from US10028999B2, “PAR-1 based therapeutic conjugates and uses thereof” (TEL HASHOMER MEDICAL RESEARCH INFRASTRUCTURE AND SERVICES …, priority 2014, dated 2018).
